According to patent US20100323975A1, “THERAPEUTIC AGENT FOR CEREBRAL ISCHEMIC INJURY” (OTSUKA PHARMACEUTICAL FACTORY, INC., priority 2007, published 2010):
“Also recorded” adds a separate entry of the source. Peptide text beside a SMILES is read from it.

Assays:
[1] = test system: model of middle cerebral artery occlusion and subsequent reperfusion (cerebral ischemic injury); test: Infarction rate in model of middle cerebral artery occlusion and subsequent reperfusion (Test Example 1); format: in vivo, Wistar male rats; conditions: for Infarction rate (mean value): 90 min occlusion, day after administration, control 49%
From the text: Approximately 9-week-old Wistar male rats were used. The method of Koizumi et al. (Nou-socchu (Cerebral Apoplexy), Vol. 8, pp. 1-8, 1986) was applied to the rats under halothane anesthesia, so as to produce models of middle cerebral artery occlusion and subsequent reperfusion. Specifically, each rat was fixed under natural aspiration conditions under anesthesia with gas (initial anesthesia: performed in room air containing 3% halothane; continuous anesthesia: performed in room air containing 1% halothane), and the neck of the rat was then subjected to median incision. Subsequently, the left common carotid and external carotid artery was exfoliated from surrounding connective tissues, and it was then ligated with a ligature. After that, the internal carotid artery was exfoliated from surrounding connective tissues, and it was then ligated with a ligature. Further, using scissors, a hole was made on a site close to the branch point between the left external carotid artery and the internal carotid artery, and a silicon-coated portion of a nylon plug was then inserted into the internal carotid artery at a depth of 15 to 16 mm. Thereby, the tip of the inserted nylon plug exceeded the middle cerebral artery portion and reached the anterior cerebral artery, so that the inlet of the middle cerebral artery was occluded with the silicon-coated portion of the plug. […]
On the day after the administration of the agent, a test animal was anesthetized with ether, and the brain was then excised. […] A slice of brain section was placed, with a surface to be measured down, into each well of a 12-well plate, which had been filled with a 2% TTC solution prepared by dissolving 2,3,5-triphenyltetrazolium chloride (TTC) in a phosphate buffered saline. […] Thus, the area of an infarct on the measurement surface of each brain section (the site in which brain tissue was considered to be necrosed) was measured, and the obtained value was then multiplied by the thickness of the brain section, so as to obtain the volume of an infarct in each brain section. […]

[2] = L-histidine concentration in blood after intravenous administration (Test Example 2)
Experimental: (§1) 7- to 9-week-old Wistar male rats were divided into the following 8 administration groups. The number of rats in each group was set at 4. […]
The therapeutic agent for cerebral ischemic injury obtained in Production Example 2 was diluted by a factor of 2, and the thus diluted solution was administered into the caudal vein of each rat at a rate of 60 mL/kg/hr for 10 minutes. […]
(§2) L-histidine was added to water for injection purpose, and acetic acid was further added thereto, so as to dissolve L-histidine in the solution. The obtained solution was adjusted to pH 6.0 with a sodium hydroxide aqueous solution. The obtained injection solution (L-histidine concentration: 10% (W/V)) was administered into the caudal vein of each rat at a rate of 60 mL/kg/hr for 10 minutes.
as §2, with “citric” for “acetic”, “minutes. […]” for “minutes.”
(§3) After administration of the agent, blood was collected from each rat at regular time intervals, and the concentration of L-histidine (monomer) in blood was then measured using a high speed amino acid analyzer L-8800A (manufactured by Hitachi High-Technologies Corporation). […] In addition, the body temperature, blood pressure, and cardiac rate of each test animal were measured during the period from before administration of the agent until after the administration of the agent, and at the same time, the appearance of each test animal was observed, so as to examine the presence or absence of side effects caused by administration of the agent. The L-histidine concentration in blood was measured 15 minutes after the administration of the agent, and the presence or absence of side effects caused by such administration of the agent was examined.

Wistar male rats = test: Identification of side effects after intravenous administration (Test Example 2); conditions: for Cessation of breathing, number of cases: 4 rats per group
Experimental: as §1
L-histidine hydrochloride was dissolved in water for injection purpose, and the obtained solution was then adjusted to pH 6.0 with a sodium hydroxide aqueous solution. The obtained injection solution (L-histidine concentration: 10% (W/V)) was administered into the caudal vein of each rat at a rate of 60 mL/kg/hr for 10 minutes.
as §2
as §2, with “citric” for “acetic”
β-alanyl-L-histidine was added to water for injection purpose, and the obtained solution was then adjusted to pH 7 with hydrochloric acid. The obtained injection solution (L-histidine concentration: 10% (W/V)) was administered into the caudal vein of each rat at a rate of 60 mL/kg/hr for 10 minutes. […]
as §3

[3] = Solubility in water at 25° C.; format: physicochemical
[4] = Time course of L-histidine concentration in blood after administration of different dipeptides (Test Example 4); format: in vivo, Wister male rats
Experimental: 7- to 8-week-old Wister male rats were divided into the following 3 administration groups.
(§4) 1.00 g of L-alanyl-L-histidine (manufactured by Bachem) was dissolved in water for injection purpose to prepare 13.70 mL (total amount) of solution. This solution was subjected to sterilization filtration, and it was then poured into syringes (10 mL each per syringe), so as to produce a therapeutic agent for cerebral ischemic injury having a dosage form as an injection. The concentration of L-alanyl-L-histidine in this therapeutic agent for cerebral ischemic injury was 0.32 mol/L (L-histidine concentration: 5% (W/V)).
as §4, with “L-histidyl-L-glycine” for “L-alanyl-L-histidine”, “14.60” for “13.70”
as §4, with “L-histidyl-L-glutamic acid” for “L-alanyl-L-histidine”, “10.90” for “13.70”

[5] = male, Wistar, rat, in vivo, 15 min
[6] = male, Wistar, rat, in vivo, 0 min
[7] = male, Wistar, rat, in vivo, 30 min
[8] = male, Wistar, rat, in vivo, 60 min
[9] = male, Wistar, rat, in vivo, 120 min
[10] = male, Wistar, rat, in vivo, -10 min
[11] = 5th administration group: dissolved with acetic acid, pH 6.0, L-histidine 10% (W/V), caudal vein 60 mL/kg/hr for 10 minutes
[12] = 6th administration group: dissolved with citric acid, pH 6.0, L-histidine 10% (W/V), caudal vein 60 mL/kg/hr for 10 minutes

With `CC1=NN(c2ccccc2)C(=O)C1` [Edaravone, 3-methyl-1-phenyl-2-pyrazoline-5-one] the “Infarction rate (mean value)” value ([1]; Comparison group: bolus injection 3 mg/kg immediately after and 30 minutes after reperfusion) was 38%.
In the case of `C[C@H](N)C(=O)N[C@@H](Cc1c[nH]cn1)C(=O)O` [L-alanyl-L-histidine] (H-Ala-His-OH), the “Cerebral ischemic injury during cerebral ischemia-reperfusion compared with control group and comparison group” value ([1]; Experiment group, Production Example 1 injection) was “remarkably suppressed”, the “Infarction rate (mean value)” value ([1]; Experiment group: Production Example 1 injection (1.29 mol/L), caudal vein 60 mL/kg/hr for 10 minutes, immediately after and 6 hours after reperfusion) was 20% and the “Factor of increase of L-histidine concentration in blood when the concentration administered was increased by a factor of 2” value [2, 5] was 3-3.5. The Side effects (Wistar male rats; rat, in vivo) was “None”, the solubility [3] was ≥ 3500 mM and the “L-histidine concentration in blood” value [4, 6] was 7588.27 nmol/mL. The “L-histidine concentration in blood immediately after completion of administration, relative to second administration group (L-histidyl-L-glycine)” value [4, 6] was “approximately 2 times”, the “L-histidine concentration in blood immediately after completion of administration, relative to third administration group (L-histidyl-L-glutamic acid)” value [4, 6] was “approximately 5 times” and the “L-histidine concentration in blood” value [4, 5] was 3802.80 nmol/mL. The “L-histidine concentration in blood” value [4, 7] was 2198.93 nmol/mL, the “L-histidine concentration in blood” value [4, 8] was 770.17 nmol/mL and the “L-histidine concentration in blood” value [4, 9] was 268.77 nmol/mL. The “L-histidine concentration in blood” value [4, 10] was 76.67 nmol/mL.
In the case of `Cl.N[C@@H](Cc1c[nH]cn1)C(=O)O` [L-histidine hydrochloride], the Side effects (Wistar male rats; 4th (pH 6.0) / 7th (pH 7) administration group: L-histidine concentration 10% (W/V), caudal vein 60 mL/kg/hr for 10 minutes, hydrochloride) was “Decrease in blood pressure; also recorded: Cessation of breathing” and the “Cessation of breathing, number of cases” value (Wistar male rats; 4th group: during administration of agent, 7th group: immediately after administration, L-histidine 10% (W/V)) was “agent in 2 cases”.
For `N[C@@H](Cc1c[nH]cn1)C(=O)O` [L-histidine], the “L-histidine concentration in blood (mean value)” value [2, 11] was “Not be measurable”, the “L-histidine concentration in blood (mean value)” value [2, 12] was “Not be measurable” and the Side effects (Wistar male rats; [11]) was “Decrease in blood pressure; also recorded: Cessation of breathing”. The “Cessation of breathing, number of cases” value (Wistar male rats; 5th group (acetic acid, pH 6.0, 10% (W/V)): immediately after administration of agent) was “administration of agent in 4 cases”, the Side effects (Wistar male rats; [12]) was “Decrease in blood pressure; also recorded: Cessation of breathing” and the “Cessation of breathing, number of cases” value (Wistar male rats; 6th group (citric acid, pH 6.0, 10% (W/V)): during administration of agent) was “agent in 4 cases”.
In the case of `N[C@@H](Cc1c[nH]cn1)C(=O)N[C@@H](CCC(=O)O)C(=O)O` [L-histidyl-L-glutamic acid] (H-His-Glu-OH), the “L-histidine concentration in blood” value [4, 6] was 1546.15 nmol/mL, the “L-histidine concentration in blood” value [4, 5] was 2090.10 nmol/mL and the “L-histidine concentration in blood” value [4, 7] was 1827.15 nmol/mL. The “L-histidine concentration in blood” value [4, 8] was 926.80 nmol/mL, the “L-histidine concentration in blood” value [4, 9] was 233.20 nmol/mL and the “L-histidine concentration in blood” value [4, 10] was 78.40 nmol/mL.
With `N[C@@H](Cc1cnc[nH]1)C(=O)NCC(=O)O` [L-histidyl-L-glycine] (H-His-Gly-OH) the “L-histidine concentration in blood” value ([4]; 0 min after administration, 0.32 mol/L, caudal vein 60 mL/kg/hr for 10 minutes) was 3995.57 nmol/mL, the “L-histidine concentration in blood” value ([4]; 15 min after administration, 0.32 mol/L, caudal vein 60 mL/kg/hr for 10 minutes) was 3798.87 nmol/mL and the “L-histidine concentration in blood” value ([4]; 30 min after administration, 0.32 mol/L, caudal vein 60 mL/kg/hr for 10 minutes) was 2019.47 nmol/mL. For the same molecule, the “L-histidine concentration in blood” value ([4]; 60 min after administration, 0.32 mol/L, caudal vein 60 mL/kg/hr for 10 minutes) was 833.93 nmol/mL, the “L-histidine concentration in blood” value ([4]; 120 min after administration, 0.32 mol/L, caudal vein 60 mL/kg/hr for 10 minutes) was 244.03 nmol/mL and the “L-histidine concentration in blood” value ([4]; −10 min (before administration), 0.32 mol/L, caudal vein 60 mL/kg/hr for 10 minutes) was 74.73 nmol/mL.
In the case of `CC(=O)N[C@@H](Cc1c[nH]cn1)C(=O)O` [N-acetyl-L-histidine], the “L-histidine concentration in blood (mean value)” value ([2]; male, Wistar, rat, in vivo, 15 min, pH 7) was 0.25 mM and the Side effects (Wistar male rats; rat, in vivo, pH 7) was “None”.
With `NCCC(=O)N[C@@H](Cc1cnc[nH]1)C(=O)O` [β-alanyl-L-histidine] the “L-histidine concentration in blood (mean value)” value [2, 5] was 0.30 mM and the Side effects (Wistar male rats; rat, in vivo) was “Cessation of breathing”.
